Where no end group is shown, it is not given here.
Experiments:
cardiac muscle = assay: Rat cardiac artery occlusion / reperfusion, infarct planimetry
[1] = test system: human skin transplanted onto the backs of SCID mice, human lymphocytes injected; assay: HU-SCID mouse model: inflammatory sites in transplanted human skin; format: in vivo; settings: for number of inflammatory sites: Example 3, 100 μg alone, tail vein, mean +/- SD; for number of inflammatory sites / inflammatory sites: 24 hours; for inflammatory sites: Examples 4-7, 100 μg of peptide + 100 μg of human NDSK-II
Method: Human skin was transplanted onto the backs of SCID mice, and two weeks later human lymphocytes were injected into the peritoneum. The proceedings were according to Petzelbauer et al. (J. Invest. Dermatol. 1996, 107; 576-581). Then, fifteen mice thus prepared were injected in their tail veins with the following:
Twenty-four hours later, the human skin was removed and the number of inflammatory sites, expressed in cells per 0.3 mm^2, was evaluated and the mean value was determined with a standard deviation.

lymphocytes = assay: Adhesion and transmigration of pure lymphocytes on HUVEC on a collagen matrix; format: cell-based, human; settings: for adhesion / migration: lymphocytes
Method: (§1) Endothelial cells from human umbilical veins (HUVEC) were marked with a red fluorescent dye (Cell Tracker Orange, 1 μl/ml, Molecular Probes, Eugene, Oreg.) and were dispersed on a collagen matrix (Collaborative Biomedical Products, Bedford, Mass.). Upon confluence of the endothelial cells, peripheral mononuclear blood cells (PBMC) (10^5 cells per 25 mm^2) marked with a green fluorescent dye (Cell Tracker Green, 1 μl/ml, Molecular Probes of Messrs. Eugene, Origon) were superimposed. Thereafter, the cells were incubated at 37° C. for twelve hours.
(§2) Adhering cells that had transmigrated into the gel were photographed with a laser-scan microscope, were converted into pixels and were evaluated by means of an “NIH image” according to Gröger et al. (J. Immunol. Method 1999; 222: 101-109).
(§3) It was feasible to determine the number of adherent cells per 0.1 mm^2 such as mentioned under “adhesion”. It was feasible to determine the number of migrated cells per 0.04 mm^3 such as mentioned under “migration”. The mean value of three times three trials was evaluated together with the standard deviation.
Since PBMC substantially consists of a mixture of lymphocytes and monocytes, pure lymphocytes instead of PBMC (as in Examples 8-10) were used in Example 11.
100 μg of NDSK-uPA or 100 μg of NDSK-II, respectively, and Aalpha or Bbeta, respectively, were added to the collagen matrix according to Example 8 comprising endothelial cells and lymphocytes.
The proceedings were in accordance with Example 11, with pure lymphocytes being used. 100 μg of NDSK-uPA or 100 μg of NDSK-II, respectively, was added to the short peptide salts derived from Aalpha Gly Pro Arg (Pro)—NH2 acetate (Aalpha derivative) or derived from Bbeta Gly His Arg Pro-OH acetate (Bbeta derivative).

[2] = test system: peripheral mononuclear blood cells (PBMC); assay: Adhesion and transmigration of PBMC on HUVEC on a collagen matrix; format: cell-based, human; settings: for adhesion / migration / migration (migrated cells) / adhesion (adherent cells): PBMC; for conclusion: blocking of NDSK-II-induced PBMC adhesion/migration: Examples 9 and 10, with 100 μg NDSK-II; for migration (migrated cells) / adhesion (adherent cells): Example 8, 12 h
Method: as §1, §2, §3
100 μg of NDSK-II and Bbeta or Bbeta randomized were added to the collagen matrix according to Example 8 comprising the suspension of PBMC, and further proceedings were in accordance with Example 8.
100 μg of NDSK-II and Aalpha or Aalpha randomized were added to the collagen matrix according to Example 8 comprising the suspension of PBMC, and further proceedings were in accordance with Example 8.

monocytes = assay: Adhesion and transmigration of pure monocytes on HUVEC on a collagen matrix; format: cell-based, human
Method: as §1, §2, §3
The proceedings were in accordance with Example 11, except for pure monocytes being used instead of lymphocytes. 100 μg of NDSK-uPA or 100 μg of NDSK-II, respectively, was added to peptide Aalpha, randomized Aalpha, Bbeta or randomized Bbeta.
The proceedings were in accordance with Example 12, with pure monocytes being used. […] of NDSK-uPA or 100 μg of NDSK-II, respectively, was added to the short peptide salts Aalpha Gly Pro Arg (Pro)—NH2 acetate (Aalpha derivative) or Bbeta Gly His Arg Pro-OH acetate (Bbeta derivative).

[3] = rat, 800 μg/kg intravenously at reperfusion after 25 min occlusion, 2 hours
[4] = Example 11, 100 μg of peptide + 100 μg NDSK-II
[5] = Example 11, 100 μg of peptide + 100 μg NDSK-uPA
[6] = Example 11, substance alone, 100 μg
[7] = Example 9, 10 μg of peptide + 100 μg NDSK-II
[8] = Example 9, 100 μg of peptide + 100 μg NDSK-II
[9] = Example 9, 1000 μg of peptide + 100 μg NDSK-II
[10] = Example 12, 100 μg of peptide + 100 μg NDSK-II
[11] = Example 12, 100 μg of peptide + 100 μg NDSK-uPA
[12] = Example 12, substance alone, 100 μg
[13] = Example 10, 10 μg of peptide + 100 μg NDSK-II
[14] = Example 10, 100 μg of peptide + 100 μg NDSK-II
[15] = Example 10, 1000 μg of peptide + 100 μg NDSK-II
[16] = Example 13, 100 μg of short peptide + 100 μg NDSK-II
[17] = Example 13, 100 μg of short peptide + 100 μg NDSK-uPA
[18] = Example 13, substance alone, 100 μg
[19] = Example 14, 100 μg of short peptide + 100 μg NDSK-II
[20] = Example 14, 100 μg of short peptide + 100 mg NDSK-uPA

GHRPLDKKREEAPSLRPAPPPISGGGYR [amino acids 1 to 28 of the beta chain of the fibrin]
cardiac muscle threatened because of the vascular occlusion (cardiac muscle; [3]): 60%
endangered tissue that was dead (cardiac muscle; [3]): 29%
reduction of dead tissue (cardiac muscle; versus reference rats, p<0.05): 37%
number of inflammatory sites [1]: 6+/−1.1 cells per 0.3 mm^2
inflammatory sites [1]: 14+/−2 per 0.3 mm^2
conclusion: blocking of lymphocytic inflammation ([1]; Examples 4 to 7, with 100 μg NDSK-II): blocks lymphocytic inflammation
conclusion: blocking of lymphocytic adhesion and migration induced by NDSK-II and NDSK-uPA (lymphocytes; Example 11): completely blocks
adhesion (lymphocytes; [4]): 74 +/− 8 cells per 0.1 mm^2
migration (lymphocytes; [4]): 17 +/− 3 cells per 0.04 mm^3
adhesion (lymphocytes; [5]): 74 +/− 8 cells per 0.1 mm^2
migration (lymphocytes; [5]): 19 +/− 2 cells per 0.04 mm^3
adhesion (lymphocytes; [6]): 58 +/− 18 cells per 0.1 mm^2
migration (lymphocytes; [6]): 14 +/− 1 cells per 0.04 mm^3
adhesion [2, 7]: 63 +/− 33 cells per 0.1 mm^2
migration [2, 7]: 7 +/− 4 cells per 0.04 mm^3
adhesion [2, 8]: 47 +/− 34 cells per 0.1 mm^2
migration [2, 8]: 5 +/− 4 cells per 0.04 mm^3
adhesion [2, 9]: 52 +/− 27 cells per 0.1 mm^2
migration [2, 9]: 10 +/− 6 cells per 0.04 mm^3
conclusion: blocking of NDSK-II-induced PBMC adhesion/migration [2]: blocks inflammations
adhesion (monocytes; [10]): 70 +/− 7 cells per 0.1 mm^2
migration (monocytes; [10]): 7 +/− 5 cells per 0.04 mm^3
adhesion (monocytes; [11]): 61 +/− 11 cells per 0.1 mm^2
migration (monocytes; [11]): 8 +/− 3 cells per 0.04 mm^3
adhesion (monocytes; [12]): 59 +/− 7 cells per 0.1 mm^2
migration (monocytes; [12]): 5 +/− 1 cells per 0.04 mm^3

GPRVVERHQSACKDSDWPFCSDEDWNYK (cysteine pairing not given here) [amino acids 1 to 28 of the alpha chain of the fibrin]
number of inflammatory sites [1]: 4+/−1.1 cells per 0.3 mm^2
inflammatory sites [1]: 21+/−2.2 per 0.3 mm^2
conclusion: blocking of lymphocytic adhesion and migration induced by NDSK-II and NDSK-uPA (lymphocytes; Example 11): no blocking activity
adhesion (lymphocytes; [4]): 131 +/− 4 cells per 0.1 mm^2
migration (lymphocytes; [4]): 44 +/− 4 cells per 0.04 mm^3
adhesion (lymphocytes; [5]): 131 +/− 4 cells per 0.1 mm^2
migration (lymphocytes; [5]): 40 +/− 3 cells per 0.04 mm^3
adhesion (lymphocytes; [6]): 77 +/− 4 cells per 0.1 mm^2
migration (lymphocytes; [6]): 18 +/− 1 cells per 0.04 mm^3
adhesion [2, 13]: 69 +/− 12 cells per 0.1 mm^2
migration [2, 13]: 21 +/− 4 cells per 0.04 mm^3
adhesion [2, 14]: 73 +/− 13 cells per 0.1 mm^2
migration [2, 14]: 15 +/− 6 cells per 0.04 mm^3
adhesion [2, 15]: 70 +/− 6 cells per 0.1 mm^2
migration [2, 15]: 13 +/− 5 cells per 0.04 mm^3
conclusion: blocking of NDSK-II-induced PBMC adhesion/migration [2]: blocks the migration of PBMC only partially
adhesion (monocytes; [10]): 68 +/− 10 cells per 0.1 mm^2
migration (monocytes; [10]): 9 +/− 6 cells per 0.04 mm^3
adhesion (monocytes; [11]): 62 +/− 4 cells per 0.1 mm^2
migration (monocytes; [11]): 8 +/− 5 cells per 0.04 mm^3
adhesion (monocytes; [12]): 59 +/− 6 cells per 0.1 mm^2
migration (monocytes; [12]): 5 +/− 1 cells per 0.04 mm^3

Gly His Arg Pro-OH acetate (GHRP-OH; also: acetate salt) [Bbeta derivative, short peptide salt derived from Bbeta]
adhesion (lymphocytes; [16]): 69 +/− 7 cells per 0.1 mm^2
migration (lymphocytes; [16]): 14 +/− 5 cells per 0.04 mm^3
adhesion (lymphocytes; [17]): 70 +/− 8 cells per 0.1 mm^2
migration (lymphocytes; [17]): 16 +/− 3 cells per 0.04 mm^3
adhesion (lymphocytes; [18]): 58 +/− 10 cells per 0.1 mm^2
migration (lymphocytes; [18]): 12 +/− 9 cells per 0.04 mm^3
adhesion (monocytes; [19]): 68 +/− 7 cells per 0.1 mm^2
migration (monocytes; [19]): 8 +/− 4 cells per 0.04 mm^3
adhesion (monocytes; [20]): 61 +/− 11 cells per 0.1 mm^2
migration (monocytes; [20]): 8 +/− 3 cells per 0.04 mm^3
adhesion (monocytes; Example 14, substance alone): 52 +/− 7 cells per 0.1 mm^2
migration (monocytes; Example 14, substance alone): 6 +/− 1 cells per 0.04 mm^3

Gly Pro Arg (Pro)—NH2 acetate [Aalpha derivative]
adhesion (lymphocytes; [16]): 131 +/− 7 cells per 0.1 mm^2
migration (lymphocytes; [16]): 49 +/− 6 cells per 0.04 mm^3
adhesion (lymphocytes; [17]): 134 +/− 4 cells per 0.1 mm^2
migration (lymphocytes; [17]): 48 +/− 5 cells per 0.04 mm^3
adhesion (lymphocytes; [18]): 77 +/− 4 cells per 0.1 mm^2
migration (lymphocytes; [18]): 18 +/− 1 cells per 0.04 mm^3
adhesion (monocytes; [19]): 64 +/− 11 cells per 0.1 mm^2
migration (monocytes; [19]): 8 +/− 2 cells per 0.04 mm^3
adhesion (monocytes; [20]): 60 +/− 5 cells per 0.1 mm^2
migration (monocytes; [20]): 7 +/− 6 cells per 0.04 mm^3
adhesion (monocytes; Example 14, substance alone): 50 +/− 5 cells per 0.1 mm^2
migration (monocytes; Example 14, substance alone): 4 +/− 4 cells per 0.04 mm^3

B1: NDSK: 63 kD fibrinogen fragment, N-terminal disulfide knot; Aalpha-chain 1-51, Bbeta-chain 1–118 and gamma-chain 1-78 (protein)
chain 1: ADSGEGDFLAEGGGVRGPRVVERHQSACKDSD
chain 2: QGVNDNEEGFFSARGHRPLDKKREEAPSLRPAPPPISGGGYRARPAKAAATQKKVERKAPDAGGCLHADPDLGVLCPTGCQLQEALLQ
chain 3: YVATRDNCCILDERFGSYCPTTCGIADFLSTYQTKVDKDLQSLEDILHQVEN
migration (migrated cells) ([2]; 0.1 μg/ml): 6 +/− 3 cells per 0.04 mm^3
adhesion (adherent cells) ([2]; 0.1 μg/ml, mean +/- SD): 31 +/− 18 cells per 0.1 mm^2
adhesion (adherent cells) ([2]; 1.0 μg/ml): 35 +/− 18 cells per 0.1 mm^2
migration (migrated cells) ([2]; 1.0 μg/ml): 5 +/− 2 cells per 0.04 mm^3
adhesion (adherent cells) ([2]; 10.0 μg/ml): 36 +/− 24 cells per 0.1 mm^2
migration (migrated cells) ([2]; 10.0 μg/ml): 6 +/− 3 cells per 0.04 mm^3

B2: FCB-2: negative control; 43 kD fibrinogen cleavage product, Aalpha-chain 148-208, Bbeta-chain 191-305 and gamma-chain 95-265 (protein)
chain 1: KVQHIQLLQKNVRAQLVDMKRLEVDIDIKIRSCRGSCSRALAREVDLKDYEDQQKQLEQVI
chain 2: IPTNLRVLRSILENLRSKIQKLESDVSAQMEYCRTPCTVSCNIPVVSGKECEEIIRKGGETSEMYLIQPDSSVKPYRVYCDMNTENGGWTVIQNRQDGSVDFGRKWDPYKQGFGN
chain 3: NPDESSKPNMIDAATLKSRKMLEEIMKYEASILTHDSSIRYLQEIYNSNNQKIVNLKEKVAQLEAQCQEPCKDTVQIHDITGKDCQDIANKGAKQSGLYFIKPLKANQQFLVYCEIDGSGNGWTVFQKRLDGSVDFKKNWIQYKEGFGHLSPTGTTEFWLGNEKIHLISTQ
number of inflammatory sites [1]: 9+/−2.1 cells per 0.3 mm^2
migration (migrated cells) ([2]; 0.1 μg/ml): 6 +/− 4 cells per 0.04 mm^3
adhesion (adherent cells) ([2]; 0.1 μg/ml, mean +/- SD): 30 +/− 26 cells per 0.1 mm^2
adhesion (adherent cells) ([2]; 1.0 μg/ml): 10 +/− 10 cells per 0.1 mm^2
migration (migrated cells) ([2]; 1.0 μg/ml): 3 +/− 2 cells per 0.04 mm^3
adhesion (adherent cells) ([2]; 10.0 μg/ml): 21 +/− 7 cells per 0.1 mm^2
migration (migrated cells) ([2]; 10.0 μg/ml): 5 +/− 4 cells per 0.04 mm^3

Reference: patent US7271144B2, “Therapeutic fibrin-derived peptides and uses thereof” (Fibrex Medical Research & Development GmbH, priority 2000, dated 2007)
